Measurements as given in US20150005387A1, “COMPOSITION CONTAINING AGMATINE, AND USES THEREOF IN PREPARING DRUGS OR NEUTRACEUTICAL SUBSTANCES” (priority 2012, published 2015).

Legend:
[1] = tested on: Lewis lung carcinoma (3LL); assay: Pulmonary metastatic invasion; format: in vivo, male C57BL/6 mice; details: for additional benefit in terms of metastatic process: added to the diet depleted of cadaverine, putrescine, spermidine and spermine
Procedure: Cells from Lewis lung carcinoma (3LL) were obtained from the ECACC (European Collection of Cell Cultures) and grafted by intramuscular injection in the hind paws of male C57BL/6 mice by the method described previously (Hergueux J. et al., Exp. […] The grafted mice are distributed randomly in the cages in groups of 5 individuals. […] The metastatic dissemination is expressed as percentage invasion relative to the total surface area of the lungs. The percentage metastatic invasion was measured in the mice of the ten groups described above, each having received different nutrition.

[2] = tested on: Lewis lung carcinoma (3LL); assay: Tumour growth (tumour volume), Example 1; format: in vivo, male C57BL/6 mice
Procedure: Male C57BL/6 mice, aged 9 weeks and weighing 20 g (Janvier breeding station, Le Genest St Isle, France), are acclimatized for 1 week before the start of the study. Handling of the animals is carried out in accordance with the ethical directives for experiments and according to the recommendations of the European Biomedical Research Association. Cells from Lewis lung carcinoma (3LL) were obtained from the ECACC (European Collection of Cell Cultures) and grafted by intramuscular injection in the hind paws of male C57BL/6 mice by the method described previously (Hergueux J. et al., Exp. […] The grafted mice are distributed randomly in the cages in groups of 5 individuals. The tumour becomes palpable some days after grafting took place. […] Cancer, 1984, 34(2), 277-281).

[3] = tested on: putrescine, spermidine and spermine; assay: Tumour levels of polyamines; format: in vivo, male C57BL/6 mice; details: for decrease of the tumour level of putrescine / decrease of the tumour level of spermidine / decrease of the tumour level of spermine: relative to diet containing a normal level of polyamines
Procedure: The level of polyamines is measured in the tumour formed at the site of inoculation of the Lewis carcinoma cells. […] After incubation for at least 16 h at 4° C., the cells are centrifuged for 15 minutes at 3500 rpm at 4° C. The supernatant that contains the polyamines is removed and is used for determination of the polyamines. The polyamines are determined by the method described previously (Seiler N et al., 1996, Cancer Research, 56, 5624-5630). The three principal polyamines present in mammals (putrescine, spermidine and spermine) were determined for the ten groups of mice that had each received different nutrition. The results are illustrated in FIG. 3.

Weight of the spleen = format: in vivo, male C57BL/6 mice
Text: The animals are euthanized, then the spleen is removed from the mice and weighed using a precision balance. In addition to the ten groups of mice that each received a different diet, as described above, an eleventh group of animals was included for this study. These were male C57BL/6 mice having the same basic physiological characteristics as the mice in the other ten groups but that had not received grafts of Lewis carcinoma cells.

[4] = tested on: Lewis lung carcinoma (3LL); assay: Tumour growth (tumour volume) in combination with an anticancer drug, Example 2; format: in vivo, male C57BL/6 mice
Procedure: Male C57BL/6 mice, aged 9 weeks and weighing 20 g (Janvier breeding station, Le Genest St Isle, France), are acclimatized for 1 week before the start of the study. Handling of the animals is carried out in accordance with the ethical directives for experiments and according to the recommendations of the European Biomedical Research Association.
After 20 days, the tumour cells are collected and dispersed in PBS, counted and diluted to reach 0.5×10^6 cells/100 μL, before being grafted in the right hind paw of the mice. The grafted mice are distributed randomly in the cages in groups of 5 individuals.
The tumour becomes palpable some days after the grafting took place. The animals are sacrificed 19 days after grafting the tumour cells.
The treatment is set up 6 days after grafting, when the tumour is palpable, and is administered 7 days a week and comprises the intake ad libitum of the normal nutrition or of the test solutes as well as drinking water.
The animal model (C57BL/6 mouse) and the tumour model (Lewis carcinoma) are described above. The mice are grafted with 0.5×10^6 tumour cells, by intramuscular injection in one of the hind paws.

[5] = 2.67 g/day for 14 days, patients with a herniated disc; cited from earlier work
ODC = target: T1, ODC (Homo sapiens, UniProt P11926); details: renal cells; cited from earlier work
T1 sequence (P11926 1-461): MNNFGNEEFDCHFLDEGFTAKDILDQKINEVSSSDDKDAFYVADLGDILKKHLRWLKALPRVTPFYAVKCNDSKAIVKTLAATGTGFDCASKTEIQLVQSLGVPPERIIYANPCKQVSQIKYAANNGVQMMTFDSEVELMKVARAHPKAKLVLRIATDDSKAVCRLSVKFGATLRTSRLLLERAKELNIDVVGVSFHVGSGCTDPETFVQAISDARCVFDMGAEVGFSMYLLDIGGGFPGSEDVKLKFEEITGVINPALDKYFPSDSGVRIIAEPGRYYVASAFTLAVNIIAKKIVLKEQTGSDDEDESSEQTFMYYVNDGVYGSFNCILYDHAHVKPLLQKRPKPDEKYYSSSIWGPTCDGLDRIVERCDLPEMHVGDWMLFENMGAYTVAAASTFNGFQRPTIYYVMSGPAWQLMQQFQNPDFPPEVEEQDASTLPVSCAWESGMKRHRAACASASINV

noradrenaline release = details: intravenous injection, 1 to 100 mg/kg; cited from earlier work
[6] = intrathecal injection, diabetic rats; cited from earlier work
[7] = animals injected with 0.3 nmol; cited from earlier work
[8] = tested on: cell lines from hepatocarcinomas; details: in vitro, 10 μm to 1 mM; cited from earlier work
[9] = tumour, neomycin based on a diet depleted of cadaverine, putrescine, spermidine and spermine
[10] = cyclophosphamide (CY) 9 mg·kg^−1·week^−1
[11] = cyclophosphamide (CY) 90 mg·kg^−1·week^−1
[12] = depleted diet + agmatine 18.4 mg/kg of food
[13] = depleted diet + agmatine 184 mg/kg of food
[14] = depleted diet + agmatine 1840 mg/kg of food

In the case of neomycin, the “mean value of pulmonary metastatic invasion” value ([1]; 19 days after grafting, no agmatine, neomycin where given 2 mg/ml in drinking water) is reported as 11%, the “additional benefit in terms of metastatic process” value [1] is reported as “does not lead to any additional benefit” and the “decrease in metastatic invasion” value ([1]; relative to mice on a diet containing a normal level of polyamines without antibiotic) is reported as 60%. For the same compound, the “evolution of tumour volume” value ([2]; neomycin 2 mg/ml in drinking water, diet containing a normal level of polyamines) was “no effect”, the “decrease in the level of putrescine” value ([3]; tumour, based on a normal diet) was 17% and the “effect on the level of spermidine” value ([3]; tumour, based on a normal diet) was “no effect”. For the same compound, the “increase in the level of spermine” value ([3]; tumour, based on a normal diet) was 7%, the “decrease in the level of spermine” value [3, 9] was 5% and the “increase in the level of putrescine” value [3, 9] was 17%. The “increase in the level of spermidine” value [3, 9] was 24%, the “mean value of the weight of the spleen” value (Weight of the spleen; grafted mice, 19 days after grafting, no agmatine, neomycin where given 2 mg/ml in drinking water) was 151 mg and the “effect of neomycin on the weight of the spleen” value (Weight of the spleen; groups 2, 4 and 6 (normal diet; depleted diet; depleted diet + agmatine 18.4 mg/kg of food)) was “decrease in the weight of the spleen”. The “effect of neomycin on the weight of the spleen” value (Weight of the spleen; groups 8 and 10 (depleted diet + agmatine 184 and 1840 mg/kg of food)) was “increase in the weight of the spleen”.

With `O=P1(N(CCCl)CCCl)NCCCO1` (stereo not drawn) [cyclophosphamide] the “Monitoring of tumour volume (in cm^3) D0” value [4, 10] was 0 cm^3, the “Monitoring of tumour volume (in cm^3) D0” value [4, 11] was 0 cm^3 and the “Monitoring of tumour volume (in cm^3) D2” value [4, 10] was 0.08 cm^3. The “Monitoring of tumour volume (in cm^3) D2” value [4, 11] was 0.02 cm^3, the “Monitoring of tumour volume (in cm^3) D5” value [4, 10] was 0.2 cm^3 and the “Monitoring of tumour volume (in cm^3) D5” value [4, 11] was 0.05 cm^3. The “Monitoring of tumour volume (in cm^3) D8” value [4, 10] was 0.296 cm^3, the “Monitoring of tumour volume (in cm^3) D8” value [4, 11] was 0.074 cm^3 and the “Monitoring of tumour volume (in cm^3) D10” value [4, 10] was 0.64 cm^3. For the same compound, the “Monitoring of tumour volume (in cm^3) D10” value [4, 11] was 0.16 cm^3, the “Monitoring of tumour volume (in cm^3) D12” value [4, 10] was 1.2 cm^3 and the “Monitoring of tumour volume (in cm^3) D12” value [4, 11] was 0.3 cm^3. The “Monitoring of tumour volume (in cm^3) D15” value [4, 10] was 2.64 cm^3, the “Monitoring of tumour volume (in cm^3) D15” value [4, 11] was 0.66 cm^3 and the “Monitoring of tumour volume (in cm^3) D18” value [4, 10] was 3.0 cm^3. For the same compound, the “Tumour volume on D18 (% relative to UAR)” value [4, 10] was −20%, the “Monitoring of tumour volume (in cm^3) D18” value [4, 11] was 0.7 cm^3 and the “Tumour volume on D18 (% relative to UAR)” value [4, 11] was −81%.

In the case of `N=C(N)NCCCCN.O=S(=O)(O)O` [agmatine sulphate], the perception of pain [5] is listed as “attenuated perception of pain”.

In the case of `N=C(N)NCCCCN` [agmatine], the “inhibition of ODC / synthesis of polyamines” value (ODC) is listed as “dose-dependent inhibition of ODC”, the blood pressure (noradrenaline release) is listed as “decrease in blood pressure” and the “tactile or thermal allodynia and hyperalgesia” value [6] is listed as “suppresses tactile or thermal allodynia as well as hyperalgesia”. The “perception of pain (allodynia)” value [7] was “anti-allodynic effect”, the “additional benefit in terms of metastatic process” value [1] was “does not appear to bring any additional benefit” and the “increase of the antitumour effect of the diet depleted of cadaverine, putrescine, spermidine and spermine” value (“increase … spermidine and spermine” for short) ([2]; agmatine 18.4 mg/kg of food) was 8%. The “increase … spermidine and spermine” value ([2]; agmatine 184 mg/kg of food) was 3%, the “increase … spermidine and spermine” value ([2]; agmatine 1840 mg/kg of food) was 13% and the “decrease of the tumour level of putrescine” value [3, 12] was 35%. The “decrease of the tumour level of spermidine” value (“decrease … of spermidine” for short) [3, 12] was 10%, the “decrease of the tumour level of spermine” value [3, 12] was 31% and the “decrease of the tumour level of putrescine” value [3, 13] was 14%. The “decrease … of spermidine” value [3, 13] was 12%, the “decrease of the tumour level of spermine” value [3, 13] was 24% and the “decrease of the tumour level of putrescine” value [3, 14] was 50%. For the same compound, the “decrease … of spermidine” value [3, 14] was 10%, the “decrease of the tumour level of spermine” value [3, 14] was 16% and the “additional effect on the weight of the spleen” value (Weight of the spleen; agmatine added to the depleted diet, regardless of the dose) was “no additional effect”. The cell cycle [8] was “stopping of the cancer cells in phase G2/M of the cell cycle”.
